Experimental data: patent publication US10316035B2, “Triazolopyridine inhibitors of myeloperoxidase” (BRISTOL-MYERS SQUIBB COMPANY, priority 2015, dated 2019)

Legend:
Type in all cases: biochemical
[1] = target: T1, myeloperoxidase (MPO) (Homo sapiens, UniProt P05164); experiment: MPO peroxidation assay (Amplex Red assay)
T1 sequence (P05164 49-745): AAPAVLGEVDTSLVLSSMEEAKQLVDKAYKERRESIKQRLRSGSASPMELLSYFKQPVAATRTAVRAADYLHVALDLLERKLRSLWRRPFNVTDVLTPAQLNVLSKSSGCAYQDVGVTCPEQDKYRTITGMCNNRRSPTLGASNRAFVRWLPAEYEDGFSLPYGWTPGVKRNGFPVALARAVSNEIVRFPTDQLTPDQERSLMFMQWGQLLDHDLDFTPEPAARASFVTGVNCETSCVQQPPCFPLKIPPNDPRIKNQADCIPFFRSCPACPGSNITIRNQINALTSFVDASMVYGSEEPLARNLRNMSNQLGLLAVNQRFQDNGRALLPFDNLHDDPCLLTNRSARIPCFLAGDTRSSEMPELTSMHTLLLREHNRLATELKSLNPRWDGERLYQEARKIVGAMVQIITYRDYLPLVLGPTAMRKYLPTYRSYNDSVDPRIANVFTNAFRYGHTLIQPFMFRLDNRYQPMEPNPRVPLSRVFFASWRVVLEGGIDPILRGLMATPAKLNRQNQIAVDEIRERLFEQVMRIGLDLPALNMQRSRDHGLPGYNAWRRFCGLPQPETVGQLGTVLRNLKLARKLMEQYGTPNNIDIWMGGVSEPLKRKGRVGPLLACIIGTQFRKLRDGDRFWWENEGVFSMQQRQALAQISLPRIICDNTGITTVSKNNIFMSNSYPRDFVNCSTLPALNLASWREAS
Procedure, shortened: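 Peroxidase turnover of Amplex Red to fluorescent resorufin (Ex 535/Em 590 nm) was followed for 15 min in 100 mM KPi, pH 7.4, after 10 min room-temperature preincubation of compound with 200 pM enzyme plus 40 nM H2O2. The substrate mix contained 200 μM Amplex Red and 10 mM H2O2. IC50s came from linear-phase rates (180–540 s) fitted with a Hill equation.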

[2] = target: T2, EPX (eosinophil peroxidase) (Homo sapiens, UniProt P11678); experiment: EPX bromination assay
T2 construct: purchased Lee Biosolutions 342-60
T2 sequence (P11678 140-715): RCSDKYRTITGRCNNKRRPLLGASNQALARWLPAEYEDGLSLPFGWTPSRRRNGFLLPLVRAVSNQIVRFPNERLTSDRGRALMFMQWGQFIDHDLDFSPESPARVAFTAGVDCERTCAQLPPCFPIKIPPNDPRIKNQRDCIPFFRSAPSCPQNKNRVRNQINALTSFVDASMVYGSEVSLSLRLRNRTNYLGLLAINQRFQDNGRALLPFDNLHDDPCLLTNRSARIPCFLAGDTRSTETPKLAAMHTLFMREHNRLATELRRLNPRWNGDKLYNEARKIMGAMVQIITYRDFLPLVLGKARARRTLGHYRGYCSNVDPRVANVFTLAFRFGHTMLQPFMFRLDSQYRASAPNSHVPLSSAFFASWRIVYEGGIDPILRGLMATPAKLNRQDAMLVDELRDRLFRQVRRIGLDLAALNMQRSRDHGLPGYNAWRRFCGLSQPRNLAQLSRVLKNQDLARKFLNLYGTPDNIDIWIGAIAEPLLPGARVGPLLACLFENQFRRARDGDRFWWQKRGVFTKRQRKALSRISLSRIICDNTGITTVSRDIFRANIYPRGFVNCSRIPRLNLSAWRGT
Description: (§1) [formula] where A=minimal Y value (activity level of inhibited sample), B=maximal Y value (activity level of uninhibited sample), C=Log IC50, D=Hill Slope, x=concentration of inhibitor. EPX Bromination Assay
EPX bromination activity was measured in 100 mM KPi (pH 7.4) by monitoring the H2O2 catalyzed formation of 3-bromo tyrosine from tyrosine and potassium bromide. A 50 μl mixture of 0.6 μM EPX (Lee Biosolutions Cat#342-60) was added to 100 nL inhibitor in 100% DMSO in a 384 well REMP plate. Enzyme and compound were preincubated for ten minutes at room temperature.
After the ten minute preincubation of enzyme and inhibitor, 25 μL of a mixture containing 400 μM tyrosine and 1200 μM potassium bromide was added to the plate containing enzyme and inhibitor, followed by the addition of 25 μl of 20 μM H2O2. The reaction was allowed to proceed for 15 minutes, at which time it was quenched with 10 μL of 20% TCA. The final concentrations of all components were 0.3 μM EPX, 100 μM tyrosine, […], 5 μM H2O2, 0.1% DMSO, 2.0% TCA.
IC50 values were determined by determining the peak areas of 3-bromotyrosine present at the end of the 15 minute reaction and fitting the data to:
[formula] where A=minimal Y value (activity level of inhibited sample), B=maximal Y value (activity level of uninhibited sample), C=Log IC50, D=Hill Slope, x=concentration of inhibitor.
Reversed-phase analysis was performed on a Waters Acquity Ultra Performance LC system using an Acquity UPLC BEH C18 […], 2.1×50 mm analytical column. The column was maintained at 60° C. Samples were eluted using a gradient of 0%-100% B over 2.5 minutes, followed by equilibration with 100% A for 1 minute where A consisted of 0.1% TFA and B consisted of 90% MeOH/0.1% TFA at a flow rate of 0.6 mL/min. The retention time of 3-bromo tyrosine was 1.22 min.

[3] = target: T1, myeloperoxidase (MPO); experiment: MPO chlorination assay (APF assay)
Description: [formula] where A=minimal Y value (activity level of inhibited sample), B=maximal Y value (activity level of uninhibited sample), C=Log IC50, D=Hill Slope, x=concentration of inhibitor. MPO Chlorination Assay (APF Assay)
MPO chlorination activity was measured in 100 mM KPi (pH 7.4) by utilizing the non-fluorescent reagent Aminophenyl fluorescein (APF, Invitrogen catalog #A36003). APF is cleaved by (—OCl) to yield the fluorescent compound fluorescein. Reactions were carried out in 50 μL total volume by adding a 25 μL mixture of 200 pM myeloperoxidase and 120 mM NaCl to 100 nL inhibitor in 100% DMSO in a 384 well, non-binding surface clear bottom plate (CORNING® #3655). Enzyme, inhibitor, and chloride were preincubated for ten minutes at room temperature.
After the ten minute preincubation, 25 μL of an APF mixture containing […], 120 mM NaCl and 10 μM H2O2 was added to the plate using the internal dispensing system of a Hammatsu FDSS 6000. Kinetic determinations were carried out immediately on the FDSS 6000 (3 minute kinetic read, 1 read every second, ex: 485 nm, em: 535 nm). IC50 values for inhibitors were calculated by taking the slope of the linear portion of the kinetic measurement (20 seconds to ˜80-120 secs).
IC50 values were calculated by determining the slope of the linear portion of the kinetic trace ([…]), and using that calculated slope to determine % inhibition occurring at each concentration of inhibitor using the following equation:
as §1

[4] = MPO peroxidation, potency range class, read-out: Amplex Red IC50
[5] = MPO chlorination, potency range class, read-out: APF IC50

SMILES | IC50 [1, 4] | IC50 [2] | IC50 [3, 5] | IC50 [1] | IC50 [3]
Nc1cc(OCc2cccc(OCc3ccccc3)c2)c2nn[nH]c2n1 [Example 2, 7-(3-(Benzyloxy)benzyloxy)-3H-[1,2,3]triazolo[4,5-b]pyridin-5-amine] | 1 to 100 nM | 80 nM | – | – | –
Nc1cc(OCc2cccc(OC3CC3)c2)c2nn[nH]c2n1 [Example 6, 7-(3-Cyclopropoxybenzyloxy)-3H-[1,2,3]triazolo[4,5-b]pyridin-5-amine] | 1 to 100 nM | 10 nM | – | – | –
Nc1cc(OCc2cccc(-c3ncccn3)c2)c2nn[nH]c2n1 [Example 8, 7-(3-(Pyrimidin-2-yl)benzyloxy)-3H-[1,2,3]triazolo[4,5-b]pyridin-5-amine] | 1 to 100 nM | 40 nM | – | – | –
Nc1cc(OCc2c(F)cccc2F)c2nn[nH]c2n1 [Example 54, 7-(2,6-Difluorobenzyloxy)-3H-[1,2,3]triazolo[4,5-b]pyridin-5-amine] | 1 to 100 nM | 10 nM | – | – | –
CC(Oc1cc(N)nc2[nH]nnc12)c1cccc(F)c1 (centres unmarked) [Example 139, 7-(1-(3-Fluorophenyl)ethoxy)-3H-[1,2,3]triazolo[4,5-b]pyridin-5-amine] | 1 to 100 nM | – | 101 to 999 nM | – | –
Nc1cc(OCc2cc(C(=O)N3CCC(Cc4ccccc4)C3)ccc2Cl)c2nn[nH]c2n1 (centres unmarked) [Example 177, (3-((5-amino-3H-[1,2,3]triazolo [4,5-b]pyridin-7-yloxy)methyl)-4-chlorophenyl)(3-benzylpyrrolidin-1-yl)methanone] | 101 to 999 nM | – | 1000 to 10000 nM | – | –
Nc1cc(OCc2cc(S(F)(F)(F)(F)F)ccc2F)c2nn[nH]c2n1 [Example 226, 7-(5-Pentafluorosulfanyl-2-fluorobenzyloxy)-3H-[1,2,3]triazolo[4,5-b]pyridin-5-amine] | 1 to 100 nM | – | 101 to 999 nM | – | –
Nc1cc(OCc2c(Cl)cccc2Cl)c2nn[nH]c2n1 [Example 234, 7-((2,6-Dichlorobenzyl)oxy)-3H-[1,2,3]triazolo[4,5-b]pyridin-5-amine] | – | – | – | 1 to 100 nM | 1 to 100 nM
COc1cc(Br)ccc1COc1cc(N)nc2[nH]nnc12 [Example 242, 7-((4-Bromo-2-methoxybenzyl)oxy)-3H-[1,2,3]triazolo[4,5-b]pyridin-5-amine] | 1 to 100 nM | – | 1 to 100 nM | – | –
NC(=O)c1ccccc1COc1cc(N)nc2[nH]nnc12 [Example 254, 2-(((5-Amino-3H-[1,2,3]triazolo[4,5-b]pyridin-7-yl)oxy)methyl)benzamide] | 1000 to 10000 nM | – | 1000 to 10000 nM | – | –
Nc1cc(OCc2ccc(-n3cc(C(F)(F)F)cn3)cc2OC(F)(F)F)c2nn[nH]c2n1 [Example 271, 7-((2-(trifluoromethoxy)-4-(4-(trifluoromethyl)-1H-pyrazol-1-yl)benzyl)oxy)-3H-[1,2,3]triazolo[4,5-b]pyridin-5-amine] | 1 to 100 nM | – | 1000 to 10000 nM | – | –
Cc1nccn1-c1ccc(COc2cc(N)nc3[nH]nnc23)c(C#N)c1 [Example 277, 2-(((5-amino-3H-[1,2,3]triazolo[4,5-b]pyridin-7-yl)oxy)methyl)-5-(2-methyl-1H-imidazol-1-yl)benzonitrile] | 101 to 999 nM | – | 1000 to 10000 nM | – | –
CC(C)n1cc(-c2ccc(COc3cc(N)nc4[nH]nnc34)c(OC(F)(F)F)c2)cn1 [Example 305, 7-((4-(1-isopropyl-1H-pyrazol-4-yl)-2-(trifluoromethoxy)benzyl)oxy)-3H-[1,2,3] triazolo[4,5-b]pyridin-5-amine] | 1 to 100 nM | – | 101 to 999 nM | – | –
COc1ncc(-c2cc(F)c(COc3cc(N)nc4[nH]nnc34)c(F)c2)cn1 [Example 334, 7-((2,6-difluoro-4-(2-methoxypyrimidin-5-yl)benzyl)oxy)-3H-[1,2,3]triazolo[4,5-b] pyridin-5-amine] | 1 to 100 nM | – | 101 to 999 nM | – | –
Nc1cc(OCc2c(F)cc(-c3ccc(N4CCNCC4)nc3)cc2F)c2nn[nH]c2n1 [Example 336, 7-((2,6-difluoro-4-(6-(piperazin-1-yl)pyridin-3-yl)benzyl)oxy)-3H-[1,2,3]triazolo[4,5-b] pyridin-5-amine] | 1 to 100 nM | – | 1 to 100 nM | – | –
Nc1cc(OCc2c(F)ccc(-c3cncc(C(=O)N4CCOCC4)c3)c2Cl)c2nn[nH]c2n1 [Example 345, (5-(3-(((5-amino-3H-[1,2,3]triazolo[4,5-b]pyridin-7-yl)oxy)methyl)-2-chloro-4-fluorophenyl)pyridin-3-yl)(morpholine) methanone] | 101 to 999 nM | – | 1000 to 10000 nM | – | –
